Results from patent publication US10077261B2, “Imidazolin-5-one derivative useful as FASN inhibitors for the treatment of cancer” (Janssen Pharmaceutica NV, priority 2012, dated 2018).

Assays:
[1] = test system: A2780 ovarian cells; experiment: A2780 ovarian cell proliferation assay in lipid reduced medium, without palmitate (MTT); format: cell-based; conditions: Homo sapiens, A2780, 96 h; read-out: pIC50 A2780 Ovarian Cell, Without Palmitate (converted)
[2] = target: T1, hFASN enzyme (full length) (Homo sapiens, UniProt P49327); experiment: Fatty Acid Synthase (FASN) inhibition scintillation proximity assay; format: biochemical; conditions: for inhibition at 10 µM: read-out: Human FASN % inhibition @ 10 μM, 10 μM test compound
T1 construct: 10 μL hFASN enzyme (full length, 300 ng, purified in house); made in house
Method in brief: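 Read-out relies on hydrophobic ³H-palmitate product, formed from ³H-acetyl-CoA and malonyl-CoA, binding streptavidin imaging beads, measured at 610±20 nm after at least 24 h. Full-length enzyme (300 ng) in phosphate buffer pH 7.5 with DTT; eight compound concentrations, 0.01–30 μM.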

[3] = test system: A2780 ovarian cells; experiment: A2780 ovarian cell proliferation assay in lipid reduced medium, with palmitate (MTT); format: cell-based; conditions: Homo sapiens, A2780, 96 h; read-out: pIC50 A2780 Ovarian Cell, With Palmitate (converted)
Method in brief: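 In this palmitate-supplemented format, compound dilutions (30 μM down to 0.01 μM) are added to cells in lipid-reduced serum with 25 μM palmitate, 0.2% fatty-acid-free BSA and 0.25% ethanol. After four days (96 h) MTT absorbance at 544 nm is recorded and fitted by minimum sum of squares.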

[4] = test system: PC-3M-Luc-C6 prostate cells; experiment: In vitro PC-3M-Luc-C6 prostate cell proliferation assay in lipid reduced medium; format: cell-based; conditions: 96 h, read-out: pIC50 PC-3M-Luc-C6 prostate cell (converted)
Experimental: PC-3M-Luc-C6 prostate cells were obtained from Xenogen Corporation. Cells were maintained in MEM supplemented with 10% Fetal Calf Serum (FCS, Hyclone), 2 mM glutamine, 1 mM sodium pyruvate, 1% BME vitamins (available from for example, Sigma Aldrich), 0.1 mM non Essential Amino Acid and 50 μg/ml Gentamicin. The cells were passaged twice a week.
The next day 10 μl test compound/DMSO diluted in medium was added (3E-5M, 1E-5M, 3E-6M, 1E-6M, 3E-7M, 1E-7M, 3E-8M, 1E-8M final concentration). Compounds were tested in duplicate. After 96 h incubation at 37° C., 5% CO2 25 μl ATP-glow mix was added. The plate was incubated for 30 min at 37° C. and luminescence was measured with the Envision.
Analysis: Determination of pIC50 Values
pIC50 values were calculated as follows.
where mLC and mHC are the means of the low control wells and high control wells on the plate, after manual exclusion of outliers. The relation between the % Controlmin values and concentration was fitted to a 4-parameter logistic curve using a non-linear least squares regression method to determine the pIC50 value. Outlying data points were excluded manually to get a correct fit. The pIC50 corresponds to −log 10(IC50), if the IC50 is expressed in molar units (http://www.ncbi.nlm.nih.gov/books/NBK91994). The IC50 parameter was always determined by non-linear regression, but one or more of the other parameters may have been held fixed on a relevant input value, such as 0 for the bottom values.

[5] = test system: LNCaP-Vancouver prostate cells; experiment: In vitro LNCaP Vancouver prostate cell proliferation assay in lipid reduced medium; format: cell-based; conditions: read-out: pIC50 LNCaP_Vancouver prostate cell (converted)

T1 sequence (P49327 whole entry): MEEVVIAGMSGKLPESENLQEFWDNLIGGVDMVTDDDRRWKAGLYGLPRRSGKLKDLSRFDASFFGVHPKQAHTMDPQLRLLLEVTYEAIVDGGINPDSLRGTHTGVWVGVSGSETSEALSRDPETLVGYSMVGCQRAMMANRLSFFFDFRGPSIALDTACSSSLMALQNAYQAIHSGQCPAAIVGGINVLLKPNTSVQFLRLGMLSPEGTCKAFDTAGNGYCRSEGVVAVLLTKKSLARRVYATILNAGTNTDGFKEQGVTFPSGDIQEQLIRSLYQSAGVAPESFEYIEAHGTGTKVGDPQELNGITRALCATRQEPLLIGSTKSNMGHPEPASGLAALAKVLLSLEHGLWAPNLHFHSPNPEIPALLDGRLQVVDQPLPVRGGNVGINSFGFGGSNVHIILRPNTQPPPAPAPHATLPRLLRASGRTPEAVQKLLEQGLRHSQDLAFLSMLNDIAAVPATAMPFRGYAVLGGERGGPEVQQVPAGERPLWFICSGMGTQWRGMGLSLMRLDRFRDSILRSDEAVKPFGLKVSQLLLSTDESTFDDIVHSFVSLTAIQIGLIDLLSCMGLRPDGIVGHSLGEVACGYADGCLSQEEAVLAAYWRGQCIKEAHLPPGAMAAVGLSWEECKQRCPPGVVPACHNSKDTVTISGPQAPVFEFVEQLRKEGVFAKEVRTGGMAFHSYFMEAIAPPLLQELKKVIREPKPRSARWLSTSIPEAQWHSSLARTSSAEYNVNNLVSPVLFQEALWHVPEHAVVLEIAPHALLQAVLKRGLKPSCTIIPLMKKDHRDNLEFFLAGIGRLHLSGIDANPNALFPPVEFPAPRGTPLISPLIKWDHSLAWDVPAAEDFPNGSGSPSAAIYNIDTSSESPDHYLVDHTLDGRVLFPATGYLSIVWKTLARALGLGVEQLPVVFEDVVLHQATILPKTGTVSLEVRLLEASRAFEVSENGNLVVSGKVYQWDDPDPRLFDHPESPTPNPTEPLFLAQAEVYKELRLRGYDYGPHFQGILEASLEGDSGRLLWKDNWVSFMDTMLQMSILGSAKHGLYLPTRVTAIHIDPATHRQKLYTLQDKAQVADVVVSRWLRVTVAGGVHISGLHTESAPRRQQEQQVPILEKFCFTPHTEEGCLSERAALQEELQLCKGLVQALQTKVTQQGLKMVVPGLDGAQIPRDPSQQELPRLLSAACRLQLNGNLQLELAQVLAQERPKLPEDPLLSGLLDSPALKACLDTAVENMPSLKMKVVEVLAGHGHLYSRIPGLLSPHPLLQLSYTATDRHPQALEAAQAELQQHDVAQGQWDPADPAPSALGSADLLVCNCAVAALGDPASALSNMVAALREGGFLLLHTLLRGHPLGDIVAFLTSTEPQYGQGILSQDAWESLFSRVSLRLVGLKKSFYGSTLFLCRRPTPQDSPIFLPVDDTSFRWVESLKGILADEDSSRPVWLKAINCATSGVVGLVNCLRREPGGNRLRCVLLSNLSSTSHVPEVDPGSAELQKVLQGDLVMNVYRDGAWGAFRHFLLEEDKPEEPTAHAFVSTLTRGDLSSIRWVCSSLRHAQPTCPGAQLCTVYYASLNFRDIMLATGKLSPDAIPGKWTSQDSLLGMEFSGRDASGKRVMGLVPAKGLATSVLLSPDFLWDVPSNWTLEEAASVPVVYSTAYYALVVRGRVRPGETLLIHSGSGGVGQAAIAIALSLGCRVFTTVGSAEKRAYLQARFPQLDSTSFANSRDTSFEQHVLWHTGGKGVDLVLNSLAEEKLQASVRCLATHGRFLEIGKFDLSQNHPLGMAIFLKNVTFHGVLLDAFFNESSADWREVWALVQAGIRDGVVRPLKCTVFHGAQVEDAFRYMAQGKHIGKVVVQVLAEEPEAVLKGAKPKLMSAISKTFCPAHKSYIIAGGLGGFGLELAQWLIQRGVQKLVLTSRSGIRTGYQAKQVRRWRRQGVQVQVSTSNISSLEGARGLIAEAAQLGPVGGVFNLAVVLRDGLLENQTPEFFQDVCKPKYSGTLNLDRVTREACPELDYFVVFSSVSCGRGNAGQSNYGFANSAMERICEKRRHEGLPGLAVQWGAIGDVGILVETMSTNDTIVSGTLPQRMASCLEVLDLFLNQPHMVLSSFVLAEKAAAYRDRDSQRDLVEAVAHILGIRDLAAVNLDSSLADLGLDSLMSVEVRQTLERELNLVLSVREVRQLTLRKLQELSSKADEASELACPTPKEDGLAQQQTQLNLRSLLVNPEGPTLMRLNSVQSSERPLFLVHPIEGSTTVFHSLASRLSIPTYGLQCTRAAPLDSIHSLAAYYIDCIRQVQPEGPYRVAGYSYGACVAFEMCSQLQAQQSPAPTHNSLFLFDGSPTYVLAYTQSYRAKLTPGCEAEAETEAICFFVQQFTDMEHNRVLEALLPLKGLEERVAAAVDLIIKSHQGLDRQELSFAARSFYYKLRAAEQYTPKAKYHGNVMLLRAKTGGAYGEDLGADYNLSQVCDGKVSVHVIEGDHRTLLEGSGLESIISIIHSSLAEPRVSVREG

Row | SMILES | IC50 [1] | inhibition at 10 µM [2] | IC50 [3] | IC50 [4] | IC50 [5] | IC50 ([2]; read-out: Human FASN pIC50 (converted))
1 | Cc1cc2cc(-c3ccc(C4=NC5(CC5)C(=O)N4C[C@@H]4CCN(C(=O)C5CC5)C4)cc3)ccc2o1 [compound 294, (R)-6-((1-(cyclopropanecarbonyl)pyrrolidin-3-yl)methyl)-5-(4-(2-methylbenzofuran-5-yl)phenyl)-4,6-diazaspiro[2.4]hept-4-en-7-one] | ~1860 nM | 100% | > 10000 nM | ~871 nM | 2040 nM | 
2 | O=C(C1CC1)N1CC[C@@H](CN2C(=O)C3(CC3)N=C2c2ccc(-c3nc4ccccc4s3)cc2F)C1 [compound 252, (R)-5-(4-(benzo[d]thiazol-2-yl)-2-fluorophenyl)-6-((1-(cyclopropanecarbonyl)pyrrolidin-3-yl)methyl)-4,6-diazaspiro[2.4]hept-4-en-7-one] | ~77.6 nM |  | > 10000 nM | 56.2 nM | 251 nM | 
3 | Cc1cc(-c2ccc3cc(F)ccc3c2)ccc1C1=NC2(CC2)C(=O)N1CC1CN(C(=O)C2CCO2)C1 (centres unmarked) [compound 223, 5-(4-(6-fluoronaphthalen-2-yl)-2-methylphenyl)-6-((1-(oxetan-2-carbonyl)azetidin-3-yl)methyl)-4,6-diazaspiro[2.4]hept-4-en-7-one] | ~20 nM | 104% | 3310 nM | 60.3 nM | 240 nM | 53.7 nM
4 | O=C(C1CC1)N1CC[C@@H](CN2C(=O)C3(CC3)N=C2c2ccc(-c3ccc4cccnc4c3)cc2)C1 [compound 309, (R)-6-((1-(cyclopropanecarbonyl)pyrrolidin-3-yl)methyl)-5-(4-(quinolin-7-yl)phenyl)-4,6-diazaspiro[2.4]hept-4-en-7-one] | 6.17 nM |  | > 10000 nM | 7.41 nM | 31.6 nM | 
5 | O=C(C1CC1)N1CC(CN2C(=O)C3(CC3)N=C2c2ccc(-c3ccc4cc(F)ccc4n3)cc2F)C1 [compound 228, 6-((1-(cyclopropanecarbonyl)azetidin-3-yl)methyl)-5-(2-fluoro-4-(6-fluoroquinolin-2-yl)phenyl)-4,6-diazaspiro[2.4]hept-4-en-7-one] | 18.2 nM | 103% | > 10000 nM | 97.7 nM | 759 nM | 
6 | Cc1cc(-c2ccc3c(cnn3C)c2)ccc1C1=NC2(CC2)C(=O)N1CC1CN(C(=O)C2(C)CC2)C1 [compound 207, 5-(2-methyl-4-(1-methyl-1H-indazol-5-yl)phenyl)-6-((1-(1-methylcyclopropanecarbonyl)azetidin-3-yl)methyl)-4,6-diazaspiro[2.4]hept-4-en-7-one] | 60.3 nM | 101% | > 10000 nM | ~67.6 nM | 513 nM | 
7 | O=C(C1CC1)N1CC[C@H](CN2C(=O)C3(CC3)N=C2c2ccc(-c3ccc4occc4c3)cc2)C1 [compound 409, 5-[4-(1-Benzofuran-5-yl)phenyl]-6-{[(3S)-1-(cyclopropylcarbonyl)pyrrolidin-3-yl]methyl}-4,6-diazaspiro[2.4]hept-4-en-7-one] | 2090 nM |  | > 10000 nM | 1170 nM | 2190 nM | 
8 | Cn1ncc2cc(-c3ccc(C4=NC5(CC5)C(=O)N4CC4CN(C(=O)C5CC5)C4)cc3)ccc21 [compound 39, 6-{[1-(Cyclopropylcarbonyl)azetidin-3-yl]methyl}-5-[4-(1-methyl-1H-indazol-5-yl)phenyl]-4,6-diazaspiro[2.4]hept-4-en-7-one] | 331 nM |  | > 10000 nM | 151 nM | 1050 nM | 
9 | O=C(C1CC1)N1CC[C@@H](CN2C(=O)C3(CC3)N=C2c2ccc(-c3ccc4[nH]ncc4c3)cc2)C1 [compound 297, (R)-5-(4-(1H-indazol-5-yl)phenyl)-6-((1-(cyclopropanecarbonyl)pyrrolidin-3-yl)methyl)-4,6-diazaspiro[2.4]hept-4-en-7-one] | 25.1 nM |  | > 10000 nM | ~30.2 nM | 646 nM | 
10 | Cc1cc(-c2ccc3c(cnn3C)c2)ccc1C1=NC2(CC2)C(=O)N1C[C@@H]1CCN(C(=O)C2CC2)C1 [compound 262, (R)-6-((1-(cyclopropanecarbonyl)pyrrolidin-3-yl)methyl)-5-(2-methyl-4-(1-methyl-1H-indazol-5-yl)phenyl)-4,6-diazaspiro[2.4]hept-4-en-7-one] | 77.6 nM |  | 6030 nM | ~117 nM | 295 nM | 
11 | Cc1cc(C2=NC3(CC3)C(=O)N2C[C@@H]2CCN(C(=O)C3CC3)C2)ccc1-c1ccc2c(cnn2C)c1 [compound 450, 6-{[(3R)-1-(Cyclopropylcarbonyl)pyrrolidin-3-yl]methyl}-5-[3-methyl-4-(1-methyl-1H-indazol-5-yl)phenyl]-4,6-diazaspiro[2.4]hept-4-en-7-one] | ~617 nM |  | > 10000 nM | 794 nM | 2340 nM | 

The next lines start with the values.

Row | IC50 [1] | inhibition at 10 µM [2] | IC50 [3] | IC50 [4] | IC50 [5] | IC50 ([2]; read-out: Human FASN pIC50 (converted)) | SMILES
12 | 74.1 nM | 97% | > 10000 nM | 58.9 nM | 288 nM |  | Nc1nccc2cc(-c3ccc(C4=NC5(CC5)C(=O)N4C[C@@H]4CCN(C(=O)C5CC5)C4)cc3)ccc12 [compound 469, 5-[4-(1-Aminoisoquinolin-6-yl)phenyl]-6-{[(3R)-1-(cyclopropylcarbonyl)pyrrolidin-3-yl]methyl}-4,6-diazaspiro[2.4]hept-4-en-7-one]
13 | ~2240 nM | 102% | > 10000 nM | ~562 nM | 4570 nM |  | O=C(C1CC1)N1CC[C@@H](CN2C(=O)C3(CC3)N=C2c2ccc(-c3cccc(SC4CC4)c3)cc2F)C1 [compound 641, 6-{[(3R)-1-(Cyclopropylcarbonyl)pyrrolidin-3-yl]methyl}-5-[3′-(cyclopropylsulfanyl)-3-fluorobiphenyl-4-yl]-4,6-diazaspiro[2.4]hept-4-en-7-one]
14 | 148 nM | 97% | > 10000 nM | ~251 nM | 708 nM |  | Cc1cc(-c2ccc3c(cnn3C)c2)ccc1C1=NC2(CC2)C(=O)N1CC1CN(C(=O)C2CCC2)C1 [compound 489]
15 | 63.1 nM | 109% | > 10000 nM | 34.7 nM | 263 nM |  | Cc1cc(-c2ccc3cc[nH]c3c2)ccc1C1=NC2(CCCC2)C(=O)N1C[C@@H]1CCN(C(=O)C2CC2)C1 [compound 873, (R)-2-(4-(1H-indol-6-yl)-2-methylphenyl)-3-((1-(cyclopropanecarbonyl)pyrrolidin-3-yl)methyl)-1,3-diazaspiro[4.4]non-1-en-4-one]
16 | 200 nM |  | > 10000 nM | 708 nM | 1000 nM |  | O=C(C1CC1)N1CC[C@@H](CN2C(=O)C3(CC3)N=C2c2ccc(-c3cnc4ccccc4c3)cc2)C1 [compound 474, 6-{[(3R)-1-(Cyclopropylcarbonyl)pyrrolidin-3-yl]methyl}-5-(4-quinolin-3-ylphenyl)-4,6-diazaspiro[2.4]hept-4-en-7-one]
17 | ~891 nM |  | > 10000 nM | ~692 nM | 2140 nM |  | O=C(C1CC1)N1CC[C@@H](CN2C(=O)C3(CC3)N=C2c2ccc(-c3ccc4ncccc4c3)cc2)C1 [compound 455, 6-{[(3R)-1-(Cyclopropylcarbonyl)pyrrolidin-3-yl]methyl}-5-(4-quinolin-6-ylphenyl)-4,6-diazaspiro[2.4]hept-4-en-7-one]
